Target: T1, Caspase-1 (Homo sapiens, UniProt P29466)
T1 sequence (P29466 whole entry): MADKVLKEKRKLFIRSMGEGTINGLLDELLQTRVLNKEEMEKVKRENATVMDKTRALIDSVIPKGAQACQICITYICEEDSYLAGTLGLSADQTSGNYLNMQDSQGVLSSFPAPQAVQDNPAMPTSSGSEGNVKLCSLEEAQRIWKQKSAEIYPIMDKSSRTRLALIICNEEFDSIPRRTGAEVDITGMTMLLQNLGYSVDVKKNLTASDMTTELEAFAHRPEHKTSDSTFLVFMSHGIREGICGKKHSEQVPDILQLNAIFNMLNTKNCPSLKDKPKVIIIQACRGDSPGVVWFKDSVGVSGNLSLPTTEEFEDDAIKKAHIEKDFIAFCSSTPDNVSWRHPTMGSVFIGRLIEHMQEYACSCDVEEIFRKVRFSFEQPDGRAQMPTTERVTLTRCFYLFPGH
Test: The compound was tested for inhibition of IL-1 beta converting enzyme in whole human blood.

CC(=O)N[C@@H](Cc1ccc(O)cc1)C(=O)N[C@H](C(=O)N[C@@H](C)C(=O)N[C@H](C=O)CC(=O)O)C(C)C
Ki: 760 pM

Source: ChEMBL document CHEMBL1126427, “Synthesis of a potent, reversible inhibitor of interleukin-1 converting enzyme” (Bioorg Med Chem Lett, 1992)
